Measured values from patent publication US11981711B2, “Methods of treating spinal cord injury using a chondroitin sulfate proteoglycan (CSPG) reduction peptide (CRP) comprising a cell membrane penetrating domain, a CSPG binding domain, and a lysosome targeting domain” (The Cleveland Clinic Foundation, priority 2017, dated 2024).

Columns and labels:
[1] = tested on: chondroitin sulfate proteoglycan (CSPG); test: CSPG expression around the spinal cord lesion after contusive SCI, treatment from one day after SCI; format: in vivo, rat; conditions: two weeks after contusive SCI; treatment starting one day after SCI; vs vehicle
From the text: (§1) In this Example, the CRP has been applied in a preclinical rat model to test the efficacy of the treatment of spinal cord injury (SCI). The injury was made at thoracic 8 level using contusive injury device. The contusive SCI is the most clinical relevance among all experimental SCI models. We have assessed both motor and bladder control as functional outcomes and analyzed anatomical evidences to support these findings. We also selected sub-acute phase (ONE-DAY after SCI) and chronic phase (TWO-MONTHs after SCI) to start our treatment.
Furthermore CRP can efficiently improve locomotion and bladder electromyography (EMG) activities and voiding patterns after SCI.

[2] = tested on: spinal cord injury (SCI); conditions: cited from earlier work
[3] = tested on: spinal cord injury (SCI); test: Locomotion (BBB 21-point score) and gait after chronic SCI, treatment from two months after SCI; format: in vivo, rat
From the text: Basso, Beattie, and Bresnahan (BBB) 21-point scoring test is used as the locomotion assessment after SCI. SCI causes significant deficits on locomotion function as indicated by the significant drop of BBB scores from 21 of the normal rats. […] However, ISP treatment slightly decreases BBB scores from 11.667±0.211 (two months after SCI) to 11.00±0.577 (two months plus 42 days after SCI) (A).
as §1
The above were followed up with studies to evaluate the treatment effects of CRP in chronic SCI. The chronic SCI is not only way more challenge to be repaired but also is the clinical status of the majority of patients with SCI.

intracellular sigma peptide [ISP, reference compound]
CSPG in lesion epicenter and adjacent tissue [1]: does not decrease CSPG
functional recovery after SCI ([2]; applied immediately after SCI in rats): minor effects on promoting functional recovery
effect on chronic SCI ([2]; applied two-month after SCI): no effects on chronic SCI
effect on CSPG in vivo ([2]; background statement): no effects on CSPG
BBB score ([3]; two months after SCI (start of treatment)): 11.667±0.211
BBB score ([3]; two months plus 42 days after SCI, treatment starting two months after contusive SCI): 11.00±0.577
